How the values were obtained:
Format in all cases: cell-based
[1] = tested on: Enterococcus faecalis (EFA); test: MIC, two-fold agar dilution (CLSI), clinical isolates; settings: for Anti-bacterial activity (MIC), strain EFA 15-1: clinical isolate EFA 15-1; for Anti-bacterial activity (MIC), strain EFA 15-2: clinical isolate EFA 15-2; for Anti-bacterial activity (MIC), strain EFA 15-3: clinical isolate EFA 15-3; for Anti-bacterial activity (MIC), strain EFA 15-4: clinical isolate EFA 15-4; for Anti-bacterial activity (MIC), strain EFA 15-5: clinical isolate EFA 15-5; for Anti-bacterial activity (MIC), strain EFA 15-6: clinical isolate EFA 15-6; for Anti-bacterial activity (MIC), strain EFA 15-9: clinical isolate EFA 15-9
Outline: (§1)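 Test samples were assayed by the CLSI-recommended two-fold agar dilution method, and the minimum inhibitory concentration against each tested strain was determined.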

[2] = tested on: Escherichia coli (including ESBLs, non-ESBLs); test: as above; settings: for Anti-bacterial activity (MIC), strain ECO+ 15-1: clinical isolate ECO+ 15-1; for Anti-bacterial activity (MIC), strain ECO+ 15-2: clinical isolate ECO+ 15-2; for Anti-bacterial activity (MIC), strain ECO+ 15-3: clinical isolate ECO+ 15-3; for Anti-bacterial activity (MIC), strain ECO+ 15-4: clinical isolate ECO+ 15-4; for Anti-bacterial activity (MIC), strain ECO− 15-1: clinical isolate ECO− 15-1; for Anti-bacterial activity (MIC), strain ECO− 15-2: clinical isolate ECO− 15-2; for Anti-bacterial activity (MIC), strain ECO− 15-3: clinical isolate ECO− 15-3; for Anti-bacterial activity (MIC), strain ECO− 15-4: clinical isolate ECO− 15-4
Outline: as §1

[3] = tested on: methicillin-sensitive Staphylococcus epidermidis (MSSE); test: as above; settings: for Anti-bacterial activity (MIC), strain MSSE 15-3: clinical isolate MSSE 15-3; for Anti-bacterial activity (MIC), strain MSSE 15-4: clinical isolate MSSE 15-4; for Anti-bacterial activity (MIC), strain MSSE 15-5: clinical isolate MSSE 15-5; for Anti-bacterial activity (MIC), strain MSSE 15-6: clinical isolate MSSE 15-6
Outline: as §1

[4] = tested on: methicillin-sensitive Staphylococcus aureus (MSSA); test: as above; settings: for Anti-bacterial activity (MIC), strain MSSA 15-3: clinical isolate MSSA 15-3; for Anti-bacterial activity (MIC), strain MSSA 15-4: clinical isolate MSSA 15-4; for Anti-bacterial activity (MIC), strain MSSA 15-5: clinical isolate MSSA 15-5; for Anti-bacterial activity (MIC), strain MSSA 15-6: clinical isolate MSSA 15-6
Outline: as §1

[5] = tested on: Moraxella catarrhalis (BCA); test: as above; settings: for Anti-bacterial activity (MIC), strain BCA 14-1: clinical isolate BCA 14-1; for Anti-bacterial activity (MIC), strain BCA 14-4: clinical isolate BCA 14-4; for Anti-bacterial activity (MIC), strain BCA 14-5: clinical isolate BCA 14-5; for Anti-bacterial activity (MIC), strain BCA 14-6: clinical isolate BCA 14-6; for Anti-bacterial activity (MIC), strain BCA 14-7: clinical isolate BCA 14-7; for Anti-bacterial activity (MIC), strain BCA 14-8: clinical isolate BCA 14-8; for Anti-bacterial activity (MIC), strain BCA 14-10: clinical isolate BCA 14-10
Outline: as §1

[6] = tested on: Enterococcus faecium (EFM); test: as above; settings: for Anti-bacterial activity (MIC), strain EFM 15-1: clinical isolate EFM 15-1; for Anti-bacterial activity (MIC), strain EFM 15-2: clinical isolate EFM 15-2; for Anti-bacterial activity (MIC), strain EFM 15-3: clinical isolate EFM 15-3; for Anti-bacterial activity (MIC), strain EFM 15-4: clinical isolate EFM 15-4; for Anti-bacterial activity (MIC), strain EFM 15-5: clinical isolate EFM 15-5; for Anti-bacterial activity (MIC), strain EFM 15-6: clinical isolate EFM 15-6
Outline: as §1

[7] = tested on: methicillin-resistant Staphylococcus epidermidis (MRSE); test: as above; settings: for Anti-bacterial activity (MIC), strain MRSE 15-1: clinical isolate MRSE 15-1; for Anti-bacterial activity (MIC), strain MRSE 15-2: clinical isolate MRSE 15-2; for Anti-bacterial activity (MIC), strain MRSE 15-3: clinical isolate MRSE 15-3; for Anti-bacterial activity (MIC), strain MRSE 15-7: clinical isolate MRSE 15-7
Outline: as §1

[8] = tested on: methicillin-resistant Staphylococcus aureus (MRSA); test: as above; settings: for Anti-bacterial activity (MIC), strain MRSA 15-1: clinical isolate MRSA 15-1; for Anti-bacterial activity (MIC), strain MRSA 15-2: clinical isolate MRSA 15-2; for Anti-bacterial activity (MIC), strain MRSA 15-3: clinical isolate MRSA 15-3; for Anti-bacterial activity (MIC), strain MRSA 15-4: clinical isolate MRSA 15-4
Outline: as §1

[9] = tested on: Streptococcus pneoumoniae (SPN); test: as above; settings: for Anti-bacterial activity (MIC), strain SPN 16-2: clinical isolate SPN 16-2; for Anti-bacterial activity (MIC), strain SPN 16-4: clinical isolate SPN 16-4
Outline: as §1

[10] = tested on: HCT-116 colorectal cancer cell line; test: CCK-8 proliferation inhibition; settings: Homo sapiens, HCT-116, 72 h, concentration of 30 μM; 72 hours; CCK-8; read-out: HCT116 inhibition rate/%
Outline: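 Growth inhibition is read by CCK-8 (1:10 dilution) after 72 h of compound exposure. HCT-116 cells grow in McCoy's 5A containing 10% newborn bovine serum at 2000 cells/well, with 1‰ DMSO as vehicle control.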

CCCC[C@H](CC(=O)NO)C(=O)N1CC2(CC2)C[C@@H]1c1nc2ccccc2[nH]1 [Example 59, (R)-3-((R)-6-(1H-benzimidazol-2-yl)-5-azaspiro[2.4]heptane-5-carbonyl)-N-hydroxyheptanamide]
8 µg/mL: Anti-bacterial activity (MIC), strain SPN 16-2 [9] | Anti-bacterial activity (MIC), strain SPN 16-4 [9]
> 32 µg/mL: Anti-bacterial activity (MIC), strain EFA 15-1 [1] | Anti-bacterial activity (MIC), strain EFA 15-2 [1] | Anti-bacterial activity (MIC), strain EFA 15-3 [1] | Anti-bacterial activity (MIC), strain EFA 15-4 [1] | Anti-bacterial activity (MIC), strain EFA 15-5 [1] | Anti-bacterial activity (MIC), strain EFA 15-6 [1] | Anti-bacterial activity (MIC), strain EFA 15-9 [1] | Anti-bacterial activity (MIC), strain ECO+ 15-1 [2] | Anti-bacterial activity (MIC), strain ECO+ 15-2 [2] | Anti-bacterial activity (MIC), strain ECO+ 15-3 [2] | Anti-bacterial activity (MIC), strain ECO+ 15-4 [2] | Anti-bacterial activity (MIC), strain ECO− 15-1 [2] | Anti-bacterial activity (MIC), strain ECO− 15-2 [2] | Anti-bacterial activity (MIC), strain ECO− 15-3 [2] | Anti-bacterial activity (MIC), strain ECO− 15-4 [2] | Anti-bacterial activity (MIC), strain MSSE 15-3 [3] | Anti-bacterial activity (MIC), strain MSSE 15-4 [3] | Anti-bacterial activity (MIC), strain MSSE 15-5 [3] | Anti-bacterial activity (MIC), strain MSSE 15-6 [3] | Anti-bacterial activity (MIC), strain MSSA 15-3 [4] | Anti-bacterial activity (MIC), strain MSSA 15-4 [4] | Anti-bacterial activity (MIC), strain MSSA 15-5 [4] | Anti-bacterial activity (MIC), strain MSSA 15-6 [4] | Anti-bacterial activity (MIC), strain BCA 14-1 [5] | Anti-bacterial activity (MIC), strain BCA 14-4 [5] | Anti-bacterial activity (MIC), strain BCA 14-6 [5] | Anti-bacterial activity (MIC), strain BCA 14-7 [5] | Anti-bacterial activity (MIC), strain BCA 14-8 [5] | Anti-bacterial activity (MIC), strain BCA 14-10 [5] | Anti-bacterial activity (MIC), strain EFM 15-1 [6] | Anti-bacterial activity (MIC), strain EFM 15-2 [6] | Anti-bacterial activity (MIC), strain EFM 15-3 [6] | Anti-bacterial activity (MIC), strain EFM 15-4 [6] | Anti-bacterial activity (MIC), strain MRSE 15-1 [7] | Anti-bacterial activity (MIC), strain MRSE 15-2 [7] | Anti-bacterial activity (MIC), strain MRSE 15-3 [7] | Anti-bacterial activity (MIC), strain MRSE 15-7 [7] | Anti-bacterial activity (MIC), strain MRSA 15-1 [8] | Anti-bacterial activity (MIC), strain MRSA 15-2 [8] | Anti-bacterial activity (MIC), strain MRSA 15-3 [8] | Anti-bacterial activity (MIC), strain MRSA 15-4 [8]
12%: inhibition at 30 µM [10]
16 µg/mL: Anti-bacterial activity (MIC), strain BCA 14-5 [5] | Anti-bacterial activity (MIC), strain EFM 15-5 [6] | Anti-bacterial activity (MIC), strain EFM 15-6 [6]

CCCC[C@H](CC(=O)NO)C(=O)N1CC2(CC2)C[C@H]1c1nc2ccccc2n1CCN(C)C [Example 60, (R)-3-((S)-6-(1-(2-(dimethylamino)ethyl)-1H-benzimidazol-2-yl)-5-azaspiro[2.4]heptane-5-carbonyl)-N-hydroxyheptanamide]
1 µg/mL: Anti-bacterial activity (MIC), strain SPN 16-2 [9] | Anti-bacterial activity (MIC), strain SPN 16-4 [9]
8 µg/mL: Anti-bacterial activity (MIC), strain EFM 15-5 [6]
> 32 µg/mL: Anti-bacterial activity (MIC), strain EFA 15-1 [1] | Anti-bacterial activity (MIC), strain EFA 15-2 [1] | Anti-bacterial activity (MIC), strain EFA 15-3 [1] | Anti-bacterial activity (MIC), strain EFA 15-4 [1] | Anti-bacterial activity (MIC), strain EFA 15-5 [1] | Anti-bacterial activity (MIC), strain EFA 15-6 [1] | Anti-bacterial activity (MIC), strain EFA 15-9 [1] | Anti-bacterial activity (MIC), strain ECO+ 15-1 [2] | Anti-bacterial activity (MIC), strain ECO+ 15-2 [2] | Anti-bacterial activity (MIC), strain ECO+ 15-3 [2] | Anti-bacterial activity (MIC), strain ECO+ 15-4 [2] | Anti-bacterial activity (MIC), strain ECO− 15-1 [2] | Anti-bacterial activity (MIC), strain ECO− 15-2 [2] | Anti-bacterial activity (MIC), strain ECO− 15-3 [2] | Anti-bacterial activity (MIC), strain ECO− 15-4 [2] | Anti-bacterial activity (MIC), strain MSSE 15-3 [3] | Anti-bacterial activity (MIC), strain MSSE 15-4 [3] | Anti-bacterial activity (MIC), strain MSSE 15-5 [3] | Anti-bacterial activity (MIC), strain MSSE 15-6 [3] | Anti-bacterial activity (MIC), strain MSSA 15-3 [4] | Anti-bacterial activity (MIC), strain MSSA 15-4 [4] | Anti-bacterial activity (MIC), strain MSSA 15-5 [4] | Anti-bacterial activity (MIC), strain MSSA 15-6 [4] | Anti-bacterial activity (MIC), strain BCA 14-1 [5] | Anti-bacterial activity (MIC), strain BCA 14-4 [5] | Anti-bacterial activity (MIC), strain BCA 14-5 [5] | Anti-bacterial activity (MIC), strain BCA 14-6 [5] | Anti-bacterial activity (MIC), strain BCA 14-7 [5] | Anti-bacterial activity (MIC), strain BCA 14-8 [5] | Anti-bacterial activity (MIC), strain BCA 14-10 [5] | Anti-bacterial activity (MIC), strain EFM 15-1 [6] | Anti-bacterial activity (MIC), strain EFM 15-2 [6] | Anti-bacterial activity (MIC), strain EFM 15-3 [6] | Anti-bacterial activity (MIC), strain EFM 15-4 [6] | Anti-bacterial activity (MIC), strain MRSE 15-1 [7] | Anti-bacterial activity (MIC), strain MRSE 15-2 [7] | Anti-bacterial activity (MIC), strain MRSE 15-3 [7] | Anti-bacterial activity (MIC), strain MRSE 15-7 [7] | Anti-bacterial activity (MIC), strain MRSA 15-1 [8] | Anti-bacterial activity (MIC), strain MRSA 15-2 [8] | Anti-bacterial activity (MIC), strain MRSA 15-3 [8] | Anti-bacterial activity (MIC), strain MRSA 15-4 [8]
-2%: inhibition at 30 µM [10]
32 µg/mL: Anti-bacterial activity (MIC), strain EFM 15-6 [6]
